Reference: the supplement of paper PMC11061612

Assays:
Experiment in all cases: combination Emax (second highest fraction inhibited in the dose matrix, 72 h); higher = more inhibition; extreme values may be limits of the assay
[1] = test system: CHSA8926 (Chondrosarcoma)
Outline: (§1)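 Cell lines grown in DMEM/F12 or RPMI with 10% FBS were plated in 1536-well plates and held 24 hours at 37°C, 5% CO2 before 72 hours of exposure to two-drug dose matrices, with DMSO typically at 0.2%. CellTiter-Glo 2.0 luminescence gave viability, which was converted to inhibition. Vehicle wells were set to 0 and blank wells to 1. Combination Emax is the second-highest inhibition in the matrix, and Bliss excess is the observed combination effect minus the expected EA + EB − EA·EB, where EA and EB are the single-agent effects.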

[2] = test system: COR-L279 (Small Cell Lung Carcinoma)
Outline: as §1

[3] = test system: CW-2 (Colorectal Carcinoma)
Outline: as §1

[4] = test system: DMS-114 (Small Cell Lung Carcinoma)
Outline: as §1

[5] = test system: IM-95 (Gastric Carcinoma)
Outline: as §1

[6] = test system: KU812 (Chronic Myelogenous Leukemia)
Outline: as §1

[7] = test system: KY821 (Acute Myeloid Leukemia)
Outline: as §1

[8] = test system: KYSE-270 (Esophageal Squamous Cell Carcinoma)
Outline: as §1

[9] = test system: M059J (Glioblastoma)
Outline: as §1

[10] = test system: MN-60 (B-Lymphoblastic Leukemia)
Outline: as §1

[11] = test system: MOG-G-CCM (Low Grade Glioma)
Outline: as §1

[12] = test system: NCI-H3122 (Lung Adenocarcinoma)
Outline: as §1

[13] = test system: NCI-H520 (Squamous Cell Lung Carcinoma)
Outline: as §1

[14] = test system: NCI-H661 (Non-Small Cell Lung Carcinoma)
Outline: as §1

[15] = test system: NCI-H929 (Plasma Cell Myeloma)
Outline: as §1

[16] = test system: SJSA-1 (Osteosarcoma)
Outline: as §1

[17] = test system: SK-GT-4 (Esophageal Adenocarcinoma)
Outline: as §1

[18] = test system: ST486 (Burkitt's Lymphoma)
Outline: as §1

[19] = test system: SU-DHL-5 (B-Cell Non-Hodgkin's Lymphoma)
Outline: as §1

[20] = test system: VMRC-RCZ (Kidney Carcinoma)
Outline: as §1

## COc1cccc(OCCCN)c1-c1cc(Nc2cnc(C#N)cn2)n[nH]1 [Prexasertib] + CCc1c2c(nc3ccc(O)cc13)-c1cc3c(c(=O)n1C2)COC(=O)[C@]3(O)CC [SN-38] (first compound max 1 µM, 7x7, partner max 0.3 µM)
[1]
  combination Emax: 0.537
[2]
  combination Emax: 1
[3]
  combination Emax: 0.612
[4]
  combination Emax: 0.716
[5]
  combination Emax: 0.602
[6]
  combination Emax: 0.794
[7]
  combination Emax: 1
[8]
  combination Emax: 1
[9]
  combination Emax: 0.98
[10]
  combination Emax: 0.825
[11]
  combination Emax: 0.894
[12]
  combination Emax: 0.933
[13]
  combination Emax: 0.867
[14]
  combination Emax: 0.889
[15]
  combination Emax: 0.865
[16]
  combination Emax: 0.743
[17]
  combination Emax: 0.743
[18]
  combination Emax: 1
[19]
  combination Emax: 1
[20]
  combination Emax: 0.625

## C=CCn1c(=O)c2cnc(Nc3ccc(N4CCN(C)CC4)cc3)nc2n1-c1cccc(C(C)(C)O)n1 [AZD1775] + C[C@@H]1COCCN1C2=NC(=NC(=C2)C3(CC3)[S@](=N)(=O)C)C4=C5C=CNC5=NC=C4 [AZD6738] (first compound max 1 µM, partner max 10 µM)
[1]
  combination Emax: 0.461
[2]
  combination Emax: 0.675
[3]
  combination Emax: 0.682
[4]
  combination Emax: 0.511
[5]
  combination Emax: 0.761
[6]
  combination Emax: 0.849
[7]
  combination Emax: 1
[8]
  combination Emax: 1
[9]
  combination Emax: 0.777
[10]
  combination Emax: 0.64
[11]
  combination Emax: 0.682
[12]
  combination Emax: 0.872
[13]
  combination Emax: 0.86
[14]
  combination Emax: 0.689
[15]
  combination Emax: 0.713
[16]
  combination Emax: 0.393
[17]
  combination Emax: 0.722
[18]
  combination Emax: 0.979
[19]
  combination Emax: 1
[20]
  combination Emax: 0.41

## CN(C)CCCOc1ccc(-c2ccc3ncc4c(c3c2)n(C2CCOCC2)c(=O)n4C)cn1 [AZD0156] + O=C(c1cc(Cc2n[nH]c(=O)c3ccccc23)ccc1F)N1CCN(C(=O)C2CC2)CC1 [Olaparib] (first compound max 3 µM, partner max 3 µM)
[1]
  combination Emax: 0.467
[2]
  combination Emax: 0.692
[3]
  combination Emax: 0.177
[4]
  combination Emax: 0.414
[5]
  combination Emax: 0.151
[6]
  combination Emax: 0.64
[7]
  combination Emax: 0.4
[8]
  combination Emax: 0.343
[9]
  combination Emax: 0.318
[10]
  combination Emax: 0.119
[11]
  combination Emax: 0.289
[12]
  combination Emax: 0.251
[13]
  combination Emax: 0.473
[14]
  combination Emax: 0.217
[15]
  combination Emax: 0.863
[16]
  combination Emax: 0.331
[17]
  combination Emax: 0.37
[18]
  combination Emax: 0.621
[19]
  combination Emax: 0.794
[20]
  combination Emax: 0.181

## CN(CCO)CC[C@H](CSc1ccccc1)Nc1ccc(S(=O)(=O)NC(=O)c2ccc(N3CCC([C@@H](O)c4ccccc4-c4ccc(Cl)cc4)CC3)cc2)cc1S(=O)(=O)C(F)(F)F [AZD4320] + C1CN(CCC1(C(=O)N[C@@H](CCO)C2=CC=C(C=C2)Cl)N)C3=NC=NC4=C3C=CN4 [Capivasertib] (first compound max 1 µM, 7x7, partner max 3 µM)
[1]
  combination Emax: 0.579
[2]
  combination Emax: 0.983
[3]
  combination Emax: 0.158
[4]
  combination Emax: 0.229
[5]
  combination Emax: 0.658
[6]
  combination Emax: 0.737
[7]
  combination Emax: 1
[8]
  combination Emax: 0.23
[9]
  combination Emax: 0.486
[10]
  combination Emax: 0.137
[11]
  combination Emax: 0.528
[12]
  combination Emax: 0.285
[13]
  combination Emax: 0.593
[14]
  combination Emax: 0.0615
[15]
  combination Emax: 0.969
[16]
  combination Emax: 0.392
[17]
  combination Emax: 0.443
[18]
  combination Emax: 0.881
[19]
  combination Emax: 0.956
[20]
  combination Emax: 0.37

## Cn1cnc2c(F)c(Nc3ccc(Br)cc3Cl)c(C(=O)NOCCO)cc21 [Selumetinib] + C=CCn1c(=O)c2cnc(Nc3ccc(N4CCN(C)CC4)cc3)nc2n1-c1cccc(C(C)(C)O)n1 [AZD1775] (first compound max 10 µM, partner max 1 µM)
[1]
  combination Emax: 0.556
[2]
  combination Emax: 0.432
[3]
  combination Emax: 0.464
[4]
  combination Emax: 0.192
[5]
  combination Emax: 0.453
[6]
  combination Emax: 0.965
[7]
  combination Emax: 1
[8]
  combination Emax: 0.723
[9]
  combination Emax: 0.262
[10]
  combination Emax: 0.282
[11]
  combination Emax: 0.357
[12]
  combination Emax: 0.78
[13]
  combination Emax: 0.295
[14]
  combination Emax: 0.553
[15]
  combination Emax: 0.684
[16]
  combination Emax: 0.449
[17]
  combination Emax: 0.528
[18]
  combination Emax: 0.978
[19]
  combination Emax: 0.984
[20]
  combination Emax: 0.258
